Measurements: US11225642B2, “Method for producing renal progenitor cells” (KYOTO UNIVERSITY, priority 2013, dated 2022)

Assays:
[1] = tested on: OSR1-GFP & SIX2-tdTomato reporter human iPS cell line; experiment: SIX2-positive cell induction method 2, SIX2-tdTomato-positive cell rate by flow cytometer; type: cell-based; conditions: stage 3 medium with 5 ng/ml TGFβ1 and 0.5 μM Dorsomorphin, 12 to 22 days
Procedure: The OSR1-GFP & SIX2-tdTomato reporter human iPS cell line obtained by the method in Example 1 was cultured in the manner described in stage 1 of induction method 1 to become confluent on 10-cm dishes using SNL cells as feeder cells. A CTK solution was added to dissociate the cells. After removal of the feeder cells, the dissociated cells were suspended in a DMEM/F12 medium containing 1 μM TTNPB (Sigma, T3757), 1 μM CHIR99021, 1% GlutaMAX (100×), 2% FBS, and 0.5% PenStrep. Then, the cell suspensions were transferred to a low cell binding plate (LOW CELL BIND 6 WELL DISH) such that each well contained one-third to one-sixth of the cell suspension obtained from the 10-cm dish, followed by suspension culture at 37° C. in a 5% CO2 atmosphere for 2 days.
The cell mass obtained at stage 1 was transferred to dishes coated with Matrigel or dishes coated with Synthemax (prepared in the manner described in stage 2 of induction method 1). The medium was exchanged with a DMEM/F12 medium containing 1 μM TTNPB, 0.1% 2-mercaptoethanol (1000×), 1% GlutaMAX (100×), 10% KnockOut SR, 0.1 mM MEM NEAA, and 0.5% PenStrep, followed by adhesion culture at 37° C. in a 5% CO2 atmosphere for 3 to 9 days. In this case, the medium was exchanged every 3 days with a medium having the same conditions.
The medium was removed from the cells obtained at stage 2. […]

[2] = tested on: OSR1-GFP & SIX2-tdTomato reporter human iPS cell line; experiment: SIX2-positive cell induction method 1, SIX2-tdTomato-positive cell rate by flow cytometer; type: cell-based; conditions: induction method 1; stage 3 medium with 5 ng/ml TGFβ1 and 0.5 μM Dorsomorphin, 15 to 22 days
Procedure: The OSR1-GFP & SIX2-tdTomato reporter human iPS cell line obtained by the method in Example 1 was cultured at 37° C. in a 2-5% CO2 atmosphere to become confluent on 10-cm dishes containing a primate ES/iPS cell medium (ReproCELL) supplemented with 5 ng/ml bFGF (Wako) with the use of SNL cells (McMahon, A. P. and Bradley, A. (1990) Cell 62; 1073-1085) (the cells being treated with 15.5 μg/ml mitomycin (Kyowa Hakko Kirin Co., Ltd.) for 2 to 3 hours and seeded at a density of 3×10^5 cells/10-cm dish) as feeder cells. A CTK solution (2.5% Trypsin (Invitrogen), 1 mg/ml Collagenase IV (Invitrogen), 0.1 M CaCl2, 10 mL KnockOut SR (Invitrogen), and 29.5 mL H2O) was added to dissociate the cells. After removal of the feeder cells, the dissociated cells were suspended in a DMEM/F12 medium containing 1 μM CHIR99021 (Stemgent, 04-0004), 100 ng/ml Activin A (R&D Systems, 338-AC), 1% GlutaMAX (100×) (Invitrogen, 35050-061), 2% FBS (Hyclone), and 0.5% PenStrep (Invitrogen, 10565). Then, the cell suspensions were transferred to a low cell binding plate (LOW CELL BIND 6 WELL DISH (Nunc, 145383)) such that each well contained one-third to one-sixth of the cell suspension obtained from the 10-cm dish, followed by suspension culture at 37° C. in a 5% CO2 atmosphere for 2 days.
The cell mass obtained at stage 1 was transferred to a 24-well or 6-well dish coated with Matrigel (BD Matrigel Matrix Growth Factor Reduced (BD Biosciences, 356230) (the dish being coated with 0.2 mg/ml Matrigel in DMEM and treated at 37° C. for 30 minutes or at 4° C. overnight) or a 24-well or 6-well dish coated with Synthemax (Corning Synthemax II-SC Substrate (Corning, 3535XX1)) (the dish being coated with Synthemax diluted 40-fold with sterile water and treated at room temperature for 2 hours). The medium was exchanged with a DMEM/F12 medium containing 1 μM CHIR99021, 100 ng/ml BMP7 (Recombinant human BMP7 (R&D Systems, 3534-BP)), 0.1% 2-mercaptoethanol (1000×) (Invitrogen, 21985), 1% GlutaMAX (100×), 10% KnockOut SR (Invitrogen), 0.1 mM MEM NEAA (Invitrogen, 11140), and 0.5% PenStrep, followed by adhesion culture at 37° C. in a 5% CO2 atmosphere for 3 to 6 days. In the case of culture for 3 days or more, the medium was exchanged every 3 days with a medium having the same conditions.
The medium was removed from the cells obtained at stage 2. The cells were washed with PBS and then the medium was exchanged with a DMEM/F12 medium containing 5 ng/ml TGFβ1 (Peprotech, 100-21C), 0.5 μM Dorsomorphin (AMPK Inhibitor, Compound C (Merck, 171260)), 0.1% 2-mercaptoethanol (1000×), 1% GlutaMAX (100×), 10% KnockOut SR, 0.1 mM MEM NEAA, and 0.5% PenStrep, followed by suspension culture at 37° C. in a 5% CO2 atmosphere for 15 to 22 days. In this case, the medium was exchanged every 3 days with a medium having the same conditions.
At stage 3 of SIX2-positive cell induction method 1, Dorsomorphin was replaced with 100 ng/ml Noggin (Peprotech), 0.5 μM LDN193189 (Axon MedChem, 1509), or 0.5 μM DMH1 (Tocris, 4126) for differentiation induction in the aforementioned manner.
At stage 3 of SIX2-positive cell induction method 1, TGFβ1 was exchanged with 50 μM IDE1 (Tocris) or 50 μM IDE2 (Tocris) for differentiation induction in the aforementioned manner.
At stage 3 of SIX2-positive cell induction method 1, Dorsomorphin was replaced with 0.5 μM LDN193189, while TGFβ1 with 10 ng/ml TGFβ2 (Peprotech) or 10 ng/ml TGFβ3 (R&D), for differentiation induction in the aforementioned manner. As a result, the SIX2-positive cell rates were 8.6% and 9.3%, respectively (FIGS. 2G and 2H).

| Compound | SIX2-tdTomato-positive cell rate [1] [%] | SIX2-tdTomato-positive cell rate [2] [%] |
| --- | --- | --- |
| TGFβ1: TGFβ signaling activator protein (Peprotech) | 20.6±5.3 | 21.5±2.0 |
| c1cc(-c2cnn3cc(-c4ccc(OCCN5CCCCC5)cc4)cnc23)ccn1 [Dorsomorphin, 6-[4-(2-piperidin-1-yl-ethoxy)phenyl]-3-pyridin-4-yl-pyrazolo[1,5-a]pyrimidine] | 20.6±5.3 | 21.5±2.0 |
